Legend:
human NSCLC A549 cells [1] = assay: MTS cytotoxicity studies of 166HoIG, 166HoIG-Pt and free Pt drugs (Example 6); format: cell-based; details: 24 h
Procedure: Cytotoxicity studies. The studies involving human NSCLC A549 cells were carried out under standard conditions in a humidified, 37° C., 5% CO2 atmosphere incubator. The culture medium used for A549 was Roswell Park Memorial Institute with 10% fetal calf serum (FCS), 100 μg/mL streptomycin, 100 IU/mL penicillin and 2.0 mM L-glutamine (RPMI).
Suspensions of each type of neutron-activated nanoparticle were prepared in RPMI. Two control groups, RPMI alone and RPMI with cells not exposed to ^166Ho nanoparticles, were included in each 96-well plate. At least four replicates were done for each concentration and each control group. The cells were seeded at 5×10^4 cells/mL (100 μL/well) in 96-well plates and allowed to grow for 24 h after which time the RPMI was removed and replaced with 100 μL of RPMI that contained blank ^166HoIG or ^166HoIG-Pt. After an exposure time of 24 h on a microplate shaker in the incubator, the RPMI was removed and replaced with 100 μL of fresh RPMI. […] After 1 h incubation with the MTS solution, the absorbance was read at 490 nm using a Synergy™ H1 hybrid multi-mode microplate reader. The percent survival of cells treated by each concentration of nanoparticles was calculated using the following equation:
[formula] where Ad is the absorbance of cells treated with nanoparticles, Am is the absorbance of medium alone and Ac is the absorbance of cells without treatment.

human NSCLC A549 cells [2] = assay: MTS cytotoxicity of neutron-activated nanoparticles and free Pt drugs (Example 2); format: cell-based; details: 24 h
Procedure: The radioactivity of nanoparticles prior to administration to cells was determined using a 2470 WIZARD 2 automatic gamma counter. Studies involving human NSCLC A549 cells were carried out under standard conditions in a humidified, 37° C., 5% CO2 atmosphere incubator. The culture medium used for A549 cells was minimum essential medium to which had been added 10% fetal calf serum, 100 μg/mL streptomycin, 100 IU/mL penicillin and 2.0 mM L-glutamine. Cells were seeded at 5×10^4 cells/ml (100 μL/well) in 96-well plates and allowed to grow for 24 h after which time the medium was removed and replaced with medium and drug. After an exposure time of 24 h, the medium with drug was removed and replaced with 100 μL of fresh medium. To each well, 20 μL of CellTiter 96® AQueous One Solution Cell Proliferation Assay (MTS) solution was added. After 2 h incubation with the MTS solution, the absorbance was read at 490 nm using a Synergy™ H1 hybrid multi-mode microplate reader. The percent survival of cells treated by each concentration of drug was calculated using the following equation:
[formula] where Ad is the absorbance of cells treated with drug, Am is the absorbance of medium alone and Ac is the absorbance of cells without treatment. The % survival data was fit to exponential regression and IC50 values calculated.

Compound | synergy with radiation (human NSCLC A549 cells [1]) | synergy with the radioactive Ho (human NSCLC A549 cells [2])
N.N.O=C([O-])C1(C(=O)[O-])CCC1.[Pt+2] [Free carboplatin, carboplatin] | did not act synergistically with radiation | 
N.N.[Cl][Pt][Cl] [cis, cisplatin] |  | act synergistically
